The record followed here is patent US5696112A, “Fused heterocyclic azepines as vasopressin antagonists” (American Cyanamid Company, priority 1995, dated 1997).

Each structure is given as a SMILES string.

Usually IC50 stands for the midpoint of a concentration-inhibition curve. A higher IC50 goes with weaker potency in that assay. By inhibition is commonly meant the change of the read-out against control, counted positive when it falls. Read a low inhibition as a weak effect.

Assay [1] addresses T1, Rat Kidney Medullary V2 Receptors (vasopressin V2) (Rattus norvegicus, UniProt Q00788).
T1 construct: Medullary tissues from rat kidneys are dissected out; from tissue; host or cells: rat kidney medulla membranes
Nature of the assay: Binding Assay to Rat Kidney Medullary V2 Receptors. The following applies: rat kidney medullary V2, [3H]Arg8-vasopressin. On the procedure: Binding Assay to Rat Kidney Medullary V2 Receptors
Medullary tissues from rat kidneys are dissected out, cut into small pieces and let soak in a […] sodium chloride solution containing 1.0 mM EDTA with many changes of the liquid phase, until the solution is clear of blood. The tissue is homogenized in a 0.25M sucrose solution containing 1.0 mM EDTA and 0.1 mM PMSF using a Potter-Elvehjem homogenizer with a teflon pestle. The homogenate is filtered through several layers (4 layers) of cheese cloth. The filtrate is rehomogenized using a dounce homogenizer, with a tight fitting pestle. The final homogenate is contrifuged at 1500×g for 15 min. The nuclear pellet is discarded and the supernatant fluid recentrifuged at 40,000×g for 30 min. The resulting pellet formed contains a dark inner part with the exterior, slightly pink. The pink outer part is suspended in a small amount of 50.0 mMTris.HCl buffer, pH 7.4. The protein content is determined by the Lowry's method (Lowry et al, J. Biol. Chem., 1953). The membrane suspension is stored at -70° C., in 50.0 mMTris.HCl, containing 0.2% inactivated BSA and 0.1 mM PMSF in aliquots of 1.0 ml containing 10.0 mg protein per ml of suspension until use in subsequent binding experiments.
For binding experiments, the following is added in μl volume to wells of a 96 well format of a microtiter plate: 100.0 μl of 100.0 mM Tris.HCl buffer containing 0.2% heat inactivated BSA, 10.0 mM MgCl2 and a mixture of protease inhibitors: leupeptin, 1.0 mg %; aprotinin, 1.0 mg %; 1,10-phenanthroline, 2.0 mg %; trypsin inhibitor, 10.0 mg % and 0.1 mM PMSF, 20.0 μl of [^3 H]Arginine^8, vasopressin (S.A. 75.0 Ci/mmole) at 0.8 nM and the reaction initiated by the addition of 80.0 μl of tissue membranes (200.0 μg tissue protein). The plates are left undisturbed on the bench top for 120 min. to reach equilibrium. Non-specific binding is assessed in the presence of 1.0 μM of unlabeled ligand, added in 20 μl volume. For test compounds, these are solubilized in 50% dimethylsulfoxide (DMSO) and added in 20.0 μl volume to a final incubation volume of 200 μl. Upon completion of binding, the content of each well is filtered off, using a Brandel® cell Harvester (Gaithersburg, Md.). The radioactivity trapped on the filter disk by the ligand-receptor complex is assessed by liquid scintillation counting in a Packard LS Counter, with an efficiency of 65% for tritium. The data are analyzed for IC50 values by the LUNDON-2 program for competition (LUNDON SOFTWARE, OH).

Assay [2] deals with Vasopressin V2. Nature of the assay: Vasopressin V2 Antagonist Activity in Conscious Hydrated Rats. The following applies: AVP 0.4 μg/kg i.p. The class given is in vivo, rat. Here is the method:
Vasopressin V2 Antagonist Activity in conscious Hydrated Rats Conscious hydrated rats are treated with compounds under study from 0.1 to 100 mg/kg orally or vehicle. Two to four rats are used for each compound. One hour later, arginine vasopressin (AVP, antidiuretic hormone, ADH) dissolved in peanut oil is administered at 0.4 μg/kg intraperitoneally. Two rats in each test would not receive arginine vasopressin but only the vehicle (peanut oil) to serve as water-loading control. Twenty minutes later each rat is given 30 mL/kg of deionized water orally by gavage and is placed individually in a metabolic cage equipped with a funnel and a graduated glass cylinder to collect urine for four hours. Urine volume is measured and osmolality analyzed by use of a Fiske One-Ten osmometer (Fiske Assoc., Norwood, Mass. USA). Urinary sodium, potassium, and chloride are analyzed by use of ion-specific electrodes in a Beckman E3 (Electrolyte 3) Analyzer. In the following results, […] and […] osmolality relative to AVP-control indicates activity.

In assay [3] the test system is Vasopressin V1. As to the kind of experiment: Vasopressin V1 Antagonist Activity in Conscious Rats (vasopressin vasopressor response). Format: in vivo, rat. Here is the method:
Vasopressin V1 Antagonist Activity in Conscious Rats Conscious rats are restrained in a supine position with elastic tape. The area at the base of the tail is locally anesthetization by subcutaneous infiltration with 2% procaine (0.2 ml). Using aseptic technique the ventral caudal tail artery is isolated and a cannula made of PE 10 and 20 (heat-fused) tubing is passed into the lower abdominal aorta. The cannula is secured, heparinized (1000 i.u./cc), sealed and the would closed with one or two stitches of Dexon 4-0. The caudal vein is also cannulated in the same manner for intravenous drug administration. The duration of the surgery is approximately 5 minutes. Additional local anesthesia (2% procaine or lidocaine) is provided as needed. The animals are placed in plastic restraining cages in an upright position. The cannula is attached to a […] pressure transducer and pulsatile blood pressure is recorded. […] Percentage of antagonism by the compound is calculated using the pre-drug vasopressin vasopressor response as 100%.

In assay [4] the target is T2, Rat Hepatic V1 Receptors (vasopressin V1) (Rattus norvegicus, UniProt P30560).
T2 construct: Rat liver plasma membranes expressing the vasopressin V1 receptor subtypes are isolated by sucrose density gradient; from tissue; host or cells: rat liver plasma membranes
Nature of the assay: Binding Assay to Rat Hepatic V1 Receptors. The following applies: rat hepatic V1, [3H]vasopressin. Here is the method: Binding Assay to Rat Hepatic V1 Receptors
Rat liver plasma membranes expressing the vasopressin V1 receptor subtypes are isolated by sucrose density gradient according to the method described by Lesko et al., (1973). These membranes are quickly suspended in 50.0 mMTris.HCl buffer, pH 7.4, containing 0.2% bovine serum albumin (BSA) and 0.1 mM phenylmethylsulfonylfluoride (PMSF) and kept frozen at -70° C. until used in subsequent binding experiments. For binding experiments, the following is added to the wells of a ninety-six well format microtiter plate: 100 μl of 100.0 mM Tris.HCl buffer containing 10.0 mM MgCl2, 0.2% heat inactivated BSA and a mixture of protease inhibitors: leupeptin, 1.0 mg %; aprotinin, 1.0 mg %, 1,10-phenanthroline,2.0 mg %; trypsin inhibitor, 10.0 mg % and 0.1 mM PMSF, 20.0 μl of [phenylalanyl-3,4,5-^3 H]vasopressin (S.A. 45.1 Ci/mmole) at 0.8 nM, and the reaction initiated by the addition of 80 μl of tissue membranes containing 20 μg of tissue protein. The plates are kept undisturbed on the bench top at room temperature for 120 min. to reach equilibrium. Nonspecific samples are assayed in the presence of 0.1 μM of the unlabeled antagonist phenylalanylvasopressin, added in 20.0 μl volume to a final incubation volume of 200 μl. Upon completion of binding, the content of each well is filtered off, using a Brandel® cell Harvester (Gaithersburg, Md.). The radioactivity trapped on the filter disk by the ligand-receptor complex is assessed by liquid scintillation counting in a Packard LS Counter, with an efficiency of 65% for tritium. The data are analyzed for IC50 values by the LUNDON-2 program for competition (LUNDON SOFTWARE, OH).

Assay [5] has as its target T3, oxytocin receptors (Rattus norvegicus, UniProt P70536).
T3 construct: The uteri are dissected out, cleaned of fat and connective tissues; from tissue; host or cells: uterus membranes of DES-treated female Sprague-Dawley rats
T3 sequence (P70536 1-388): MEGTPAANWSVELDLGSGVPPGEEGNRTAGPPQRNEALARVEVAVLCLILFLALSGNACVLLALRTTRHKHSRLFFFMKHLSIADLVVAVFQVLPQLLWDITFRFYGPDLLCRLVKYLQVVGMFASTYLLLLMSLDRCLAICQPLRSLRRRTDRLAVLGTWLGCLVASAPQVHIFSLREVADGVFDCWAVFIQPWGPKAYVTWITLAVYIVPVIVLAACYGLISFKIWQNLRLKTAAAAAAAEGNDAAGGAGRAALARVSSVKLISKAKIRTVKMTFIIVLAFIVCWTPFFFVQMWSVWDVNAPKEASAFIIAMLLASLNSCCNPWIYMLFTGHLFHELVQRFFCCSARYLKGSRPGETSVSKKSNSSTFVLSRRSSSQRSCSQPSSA
As to the kind of experiment: Oxytocin Receptor Binding. The following applies: for IC50: 1.0 nM [3H]oxytocin. On the set-up: species or system Sprague-Dawley rats. On the procedure:
Oxytocin Receptor Binding
Female Sprague-Dawley rats weighing approximately 200-250 g are injected intramuscularly (i.m.) with 0.3 mg/kg of body weight of diethylstilbestrol (DES). The rats are sacrificed 18 hours later under pentobarbital anesthesia. The uteri are dissected out, cleaned of fat and connective tissues and rinsed in 50 ml of normal saline. The tissue pooled from six rats is homogenized in 50 ml of 0.01 mMTris.HCl, containing 0.5 mM dithiothreitol and 1.0 mM EDTA, adjusted to pH 7.4, using a polytron at setting 6 with three passes of 10 sec each. The homogenate is passed through two (2) layers of cheesecloth and the filtrate centrifuged at 1000×g for 10 min. The clear supernatant is removed and recentrifuged at 165,000×g for 30 min. The resulting pellet containing the oxytocin receptors is resuspended in 50.0 mM Tris.HCl containing 5.0 mM MgCl2 at pH 7.4, to give a protein concentration of 2.5 mg/ml of tissue suspension. This preparation is used in subsequent binding assays with [^3 H]Oxytocin.
Binding of 3,5-[^3 H]Oxytocin ([^3 H]OT) to its receptors is done in microtiter plates using [^3 H]OT, at various concentrations, in an assay buffer of 50.0 mM Tris.HCl, pH 7.4 and containing 5.0 mM MgCl2, and a mixture of protease inhibitors: BSA, 0.1 mg; aprotinin, 1.0 mg; 1,10-phenanthroline, 2.0 mg; […], 10.0 mg; and PMSF, 0.3 mg per 100 ml of buffer solution. Nonspecific binding is determined in the presence of 1.0 uM unlabeled OT. The binding reaction is terminated after 60 min., at 22° C., by rapid filtration through glass fiber filters using a Brandel® cell harvester (Biomedical Research and Development Laboratories, Inc., Gaithersburg, Md.). Competition experiments are conducted at equilibrium using 1.0 nM [^3 H]OT and varying the concentration of the displacing agents. The concentrations of agent displacing 50% of [^3 H]OT at its sites (IC50) are calculated by a computer assisted LUNDON-2 program (LUNDON SOFTWARE INC., Ohio, USA).

[6] abbreviates: Rattus norvegicus, 10 mg/kg iv, read-out: Vasopressin vasopressor response, Max. % Inhibition.

T1 sequence (Q00788 whole entry): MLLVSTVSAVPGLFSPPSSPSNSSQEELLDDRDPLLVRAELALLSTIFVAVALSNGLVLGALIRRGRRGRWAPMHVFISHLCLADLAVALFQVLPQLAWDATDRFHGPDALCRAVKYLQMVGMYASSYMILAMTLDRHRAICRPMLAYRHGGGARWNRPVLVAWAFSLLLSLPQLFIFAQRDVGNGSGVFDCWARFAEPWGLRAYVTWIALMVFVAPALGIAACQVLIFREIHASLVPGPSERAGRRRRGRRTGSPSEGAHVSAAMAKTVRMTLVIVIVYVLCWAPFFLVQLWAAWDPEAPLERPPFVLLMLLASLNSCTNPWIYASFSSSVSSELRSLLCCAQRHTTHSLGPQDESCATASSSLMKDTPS
T2 sequence (P30560 whole entry): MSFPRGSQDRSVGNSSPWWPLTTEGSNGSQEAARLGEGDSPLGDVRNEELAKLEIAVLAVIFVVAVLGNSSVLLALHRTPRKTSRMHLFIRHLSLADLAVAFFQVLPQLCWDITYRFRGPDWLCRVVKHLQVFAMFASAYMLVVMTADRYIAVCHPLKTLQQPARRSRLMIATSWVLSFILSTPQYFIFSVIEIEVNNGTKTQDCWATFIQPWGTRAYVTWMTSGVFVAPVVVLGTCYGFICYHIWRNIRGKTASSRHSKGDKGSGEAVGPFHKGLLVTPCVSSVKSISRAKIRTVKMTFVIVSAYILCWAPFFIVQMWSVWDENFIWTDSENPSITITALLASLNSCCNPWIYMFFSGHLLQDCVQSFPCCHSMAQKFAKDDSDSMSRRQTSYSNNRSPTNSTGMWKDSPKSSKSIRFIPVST

Consider `O=C(Cc1ccccc1Cl)Nc1ccc(C(=O)N2CCCCc3sccc32)cc1` [Example 2, N-[4-[(5,6,7,8-Tetrahydro-4H-thieno[3,2-b]azepin-4-yl)carbonyl]phenyl]-2-chlorobenzeneacetamide], for which the figures for the IC50 in assay [1] and in assay [4] were 0.0026 µM and 0.0037 µM, respectively. In assay [2] (10 mg/kg P.O.), the “Urine Volume” value amounted to 2.8 ml/4 hours. The “Time (Min) of Max. % Inhibition” value in assay [3] (10 mg/kg iv) was 60 min. Also, the inhibition in vivo at 10 mg/kg in assay [3] (setting [6]) is 7.6%.
`O=C(Nc1ccc(C(=O)N2CCCCc3sccc32)cc1)c1ccc(Cl)cc1Cl` [Example 14, N-[4-[(5,6,7,8-Tetrahydro-4H-thieno[3,2-b]azepin-4-yl)carbonyl]phenyl]2,4-dichlorobenzamide] displayed an IC50 in assay [1] of 0.03 µM. Further, in assay [2] (30 mg/kg P.O.), the Osmolality amounted to 1432 mOsm/kg and the “Urine Volume” value turned out to be 3.5 ml/4 hours. For the same compound, the “Time (Min) of Max. % Inhibition” value in assay [3] (20 mg/kg iv) turned out to be 120 min. The inhibition in vivo at 20 mg/kg in assay [3] (Rattus norvegicus, 20 mg/kg iv, read-out: Vasopressin vasopressor response, Max. % Inhibition) worked out at 61%. For the same compound, the IC50 in assay [4] is 0.12 µM.
Turning to `O=C(Nc1ccc(C(=O)N2CCCCc3sccc32)cc1)C1CC=CCC1` (stereo not shown) [Example 15, N-[4-[(5,6,7,8-Tetrahydro-4H-thieno[3,2-b]azepin-4-yl)carbonyl]phenyl]3-cyclohexenecarboxamide], the IC50 in assay [1] was determined as 0.055 µM; in assay [4] it was 0.065 µM. Further, the Osmolality in assay [2] (30 mg/kg P.O.) was 1397 mOsm/kg. Moreover, the “Urine Volume” value in assay [2] (30 mg/kg P.O.) was found to be 4.6 ml/4 hours. Moreover, in assay [3] (10 mg/kg iv), the “Time (Min) of Max. % Inhibition” value was 30 min. Further, in assay [3] (setting [6]), the inhibition in vivo at 10 mg/kg turned out to be 69%.
Regarding `O=C(Cc1ccccc1Cl)Nc1ccc(C(=O)N2CCCCc3sc(Cl)cc32)cc1` [Example 99, N-[4-[(2-Chloro-5,6,7,8-tetrahydro-4H-thieno[3,2-b]azepin-4-yl)carbonyl]phenyl]-2-chlorobenzeneacetamide], the IC50 in assay [1] was 0.0033 µM; in assay [4], 0.02 µM. For the same compound, the Osmolality in assay [2] (30 mg/kg P.O.) was 1135 mOsm/kg. The “Urine Volume” value in assay [2] (30 mg/kg P.O.) is recorded as 10 ml/4 hours. In assay [3] (10 mg/kg iv), the “Time (Min) of Max. % Inhibition” value was 90 min. Moreover, the inhibition in vivo at 10 mg/kg in assay [3] (setting [6]) turned out to be 58%.
As for `Cc1ccc(F)cc1C(=O)Nc1ccc(C(=O)N2CCCCc3sccc32)cn1` [Example 243, N-[5-[(5,6,7,8-tetrahydro-4H-thieno[3,2-b]azepin-4-yl)carbonyl]-2-pyridinyl]-5-fluoro-2-methylbenzamide], the IC50 in assay [5] amounted to 0.34 µM; in assay [1], 0.0061 µM; in assay [4], 0.068 µM. The compound further showed an inhibition at 10 µM in assay [5] (10 μM) of 96%.
Turning to `O=C(Nc1ccc(C(=O)N2CCCCc3sccc32)cn1)c1ccccc1-c1ccccc1` [Example 252], the results for the IC50 in assay [5], in assay [1] and in assay [4] were 0.17 µM, 0.0061 µM and 0.068 µM, respectively. This compound showed an inhibition at 2.5 µM in assay [5] (2.5 μM) of 93%.
